In general, Ki refers to a measure of affinity in units of concentration, obtained from inhibition or displacement.

Entries after “also recorded” stand apart in the source; their conditions may differ. Structures can show the parent of a compound that is named as a salt.

In experiment [1] the test system is Parkinson's disease model rats. Put plainly: Hyperkinesia of the forelimbs and shortening of rotational behavior duration induced by repeated doses of levodopa. It is filed as in vivo, rat. To be noted: for rats that did not exhibit rotational behavior: 5 mg/kg oral. The text has this:
In rats with unilateral nigrostriatal dopamine nerve destruction generally used as Parkinson's disease animal models, it became clear that by administering levodopa by repeated dosage for about 5 weeks, behavior resembling the symptoms of advanced stage Parkinson's disease appeared. That is, in Parkinson's disease model rats prepared in the same way as in Example 4, along with repeated doses of levodopa, abnormal behavior such as involuntary extending of the forelimb or opening or closing of the hand, up-and-down movement of the wrist, choreiform tremor in the forelimb on the opposite side of microinjection of 6-hydroxydopamine was observed (FIG. 3). This abnormal behavior is reported by Steece-Collier et al. (Steece-Collier K. et al., “Embryonic mesencephalic grafts increase levodopa-induced forelimb hyperkinesia in parkinsonian rats”, Movement Disorders, 2003, 18, p. 1442-1454) as hyperkinesia of the forelimbs.
This appears dependent on the period of repeated doses of levodopa and reportedly is similar to clinical dyskinesia. […] Bibbiani et al. (Bibbiani F. et al., “Serotonin 5-HT1A agonist improves motor complications in rodent and primate parkinsonian models”, Neurology, 2001, 57, p. 1829-1834) report that in Parkinson's disease model rats, along with repeated doses of levodopa, a shortening of the rotational behavior duration is observed and that this phenomenon resembles the wearing off phenomenon in clinical studies.
That is, they treated each group by repeated doses of levodopa and repeated dosage of the tested substance for about 2 weeks (Monday to Friday) and observed the hyperkinesia of the forelimbs and rotational behavior after levodopa administration. Note that the SUN N4057 was subcutaneously administered right before levodopa administration, the sarizotan was orally administered about 20 minutes before levodopa dosage in accordance with above-mentioned known reports (Bibbiani F. et al., Neurology, 2001, 57, p. 1829-1834), and the Example Compound 4 of Japanese Patent Publication No. 2005-298402A was subcutaneously administered about 30 minutes before levodopa dosage in accordance with the above-mentioned Japanese Patent Publication No. 2005-298402A. Further, for the solvent, for SUN N4057 and Example Compound 4 of Japanese Patent Publication No. 2005-298402A, physiological saline was used.
In the same way as Example 4, Parkinson's disease model rats were prepared and the rats treated by repeated doses of levodopa (twice a day, Monday to Friday) for 5 weeks and measured for hyperkinesia of the forelimbs and rotational behavior. Further, based on the results of the hyperkinesia of the forelimbs and rotational behavior duration, the rats were assigned to the groups so as to prevent any significant difference between them, then the effects of the tested substances on these behaviors resembling symptoms of advanced stage Parkinson's disease patients were compared and studied. […] Note that compound Ib (0.3, 1 mg/kg) and compound Ic (0.3, 1 mg/kg) were both intraperitoneally administered right before levodopa administration. For the solvent, physiological saline was used.

Experiment [2] concerns the target T1, human dopamine D2L receptors (Homo sapiens, UniProt P14416).
T1 construct: expressed in transfected cells; host or cells: CHO
Put plainly: Binding affinity test on human dopamine D2L receptors ([3H]spiperone, CHO membranes). As to conditions: for Ki: Dopamine D2L; for binding affinity (in words): human dopamine D2L receptors. The method, then: For the test, membrane specimens prepared from Chinese hamster ovary (CHO) cells expressing human dopamine D2L receptors were used. To a 50 mM Tris-HCl (pH 7.4) buffer containing 1.4 mM ascorbic acid, 0.001% BSA, and 150 mM NaCl, [^3H] spiperone (final concentration 0.16 nM), the test sample solution and a membrane specimen were added. The reaction solution was allowed to react at 25° C. for 2 hours, then the reaction solution was filtered with a cell harvester, the filtered filter paper was transferred to a measurement vial, a liquid scintillator was added and the receptor bond radioactivity remaining on the filter paper was determined by a liquid scintillation counter. The nonspecific bonds were defined as the amount of bonds in the presence of 10 μM haloperidol.
The following formula was used to calculate the binding inhibition rate:
[amount of [^3H] spiperone bonds in the presence of 10 μM haloperidol]}/{[amount of [^3H] spiperone bonds in the absence of test sample]−[amount of [^3H] spiperone bonds in the presence of 10 μM haloperidol]}
From the binding inhibition rate, a regression formula was used to calculate the 50% inhibition concentration. Furthermore, the inhibition constant (Ki) was calculated.

Where [3] appears, read: 0.03, 0.1 mg/kg s.c. repeated 2 weeks.
The mark [4] stands for this setting: 1, 3 mg/kg s.c. repeated 2 weeks.

T1 sequence (P14416 whole entry): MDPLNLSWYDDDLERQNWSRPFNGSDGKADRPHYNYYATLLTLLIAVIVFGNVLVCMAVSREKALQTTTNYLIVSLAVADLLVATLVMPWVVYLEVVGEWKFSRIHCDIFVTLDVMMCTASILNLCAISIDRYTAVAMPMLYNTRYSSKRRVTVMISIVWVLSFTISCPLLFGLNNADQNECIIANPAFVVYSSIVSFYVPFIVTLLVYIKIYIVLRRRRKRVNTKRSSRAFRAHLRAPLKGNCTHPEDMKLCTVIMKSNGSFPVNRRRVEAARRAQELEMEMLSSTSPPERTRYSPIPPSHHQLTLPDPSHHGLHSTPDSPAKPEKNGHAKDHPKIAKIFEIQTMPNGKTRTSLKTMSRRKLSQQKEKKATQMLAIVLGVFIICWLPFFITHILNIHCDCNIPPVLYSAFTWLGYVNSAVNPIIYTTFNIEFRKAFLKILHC

As for `Cl.Cl.Fc1ccc(-c2cncc(CNC[C@H]3CCc4ccccc4O3)c2)cc1` [Sarizotan, 1-[(2R)-3,4-dihydro-2H-chromen-2-yl]-N-{[5-(4-fluorophenyl)pyridin-3-yl]methyl}methanamine dihydrochloride], in experiment [1] (5 mg/kg oral repeated 2 weeks), the rotational behavior duration entry is on record as “significant shortening”. In experiment [1] (5 mg/kg oral repeated 2 weeks, 1 hour after levodopa dosage, p=0.099), the “hyperkinesia of the forelimbs” value is given as “tendency of the hyperkinesia of the forelimbs to be inhibited”. Also, in experiment [1] (30 minutes after levodopa dosage), the “rats that did not exhibit rotational behavior” value was “Six out of nine”. In addition, in experiment [1] (1 hour after levodopa dosage), the “rats that did not exhibit rotational behavior” value is “three out of nine”. Also, the “start of rotational behavior due to levodopa dosage” value in experiment [1] (1 and 5 mg/kg oral repeated 2 weeks) is “delay in the start of rotational behavior”. In addition, in experiment [1] (repeated oral administration, week 7 of levodopa), the “hyperkinesia of the forelimbs, compared with the solvent group (Dunnett's test)” value is “no significant difference”. Moreover, in experiment [2], the Ki turned out to be 3.29 nM and the “binding affinity (in words)” value is given as “comparatively strong binding affinity”.
Take `O=C1c2ccccc2OC=C(Cl)N1CCCCN1CC=C(c2ccccn2)CC1` [SUN N4057, 3-chloro-4,5-dihydro-4-{4-[4-(2-pyridyl)-1,2,3,6-tetrahydropyridin-1-yl]butyl}-1,4-benzoxazepin-5-one.dihydrochloride-dihydrate]: the “hyperkinesia of the forelimbs” value in experiment [1] (0.03 mg/kg s.c. repeated 2 weeks, 1 hour after levodopa dosage) is given as “significantly inhibited”; in experiment [1] (0.1 mg/kg s.c. repeated 2 weeks, 1 and 2 hours after levodopa dosage), “significantly inhibited”. Moreover, the “end of the rotational behavior” value in experiment [1] (setting [3]) was “significantly prolonged”. Also, the rotational behavior duration result in experiment [1] (setting [3]) was “significantly prolonged”. Also, the inhibition constant (Ki) in experiment [2] was found to be 161 nM.
With `Cl.Cl.O=c1[nH]c2cccc(C3CCCN(Cc4cncc(-c5ccc(F)cc5)c4)C3)c2o1` (stereo not shown) [7-(1-{[5-(4-fluorophenyl)pyridin-3-yl]methyl}piperidin-3-yl)-1,3-benzoxazol-2(3H)-one dihydrochloride], in experiment [1] (3 mg/kg s.c. repeated 2 weeks), the rotational behavior duration entry was “significant prolongation”. In experiment [1] (setting [4]), the “end of the rotational behavior” value was “prolonged” and the “start of rotational behavior” value is reported as “started earlier”. In addition, in experiment [1] (1, 3 mg/kg s.c. repeated 2 weeks, vs physiological saline group, dihydrochloride), the “hyperkinesia of the forelimbs” value is listed as “no action was exhibited; also recorded: no significant difference”. In experiment [2], the affinity corresponds to a Ki of 5.42 nM and the “binding affinity (in words)” value is reported as “comparatively strong binding affinity”.

For the origin of these results see US20100204202A1, “DRUG FOR ALLEVIATING MOTOR COMPLICATIONS OR PSYCHIATRIC SYMPTOMS OF PARKINSON'S DISEASE” (Asubio Pharma Co., Ltd., priority 2007, published 2010).
